Results: patent publication US12649750B2, “Macrocyclic compounds, compositions, and methods of using thereof” (Sionna Therapeutics Inc., priority 2022, dated 2026)

Tests used:
NBD1 = molecular target: T1, NBD1 (Homo sapiens, UniProt P13569); assay: Aggregation analysis using differential static light scattering (DSLS), thermal stability of NBD1 (ΔTagg); format: binding; settings: ΔTagg versus DMSO control, NBD1 0.2 mg/ml
T1 construct: Purified recombinant NBD1 was produced using previously described methods; made in house
How it was run: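 Purified recombinant NBD1 at 0.2 mg/ml in 50 mM Tris-HCl, 150 mM NaCl, 5 mM MgCl2, 2 mM ATP, 2 mM DTT, pH 7.6, 1% glycerol, with compound, heated 1° C./min to 70° C. under light-scattering monitoring. Tagg taken at curve inflection; ΔTagg is compound Tagg minus mean DMSO-control Tagg, binned A (≤5° C.), B (>5-≤10° C.), C (>10-≤25° C.).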

CFTR = molecular target: T2, CFTR (Homo sapiens, UniProt P13569, DEL508-508); assay: TECC24 AUC fold over DMSO @10 μM, CFTR-mediated transepithelial chloride transport in CF-HBE cells; format: cell-based; settings: test agent AUC divided by DMSO vehicle AUC, primary CF-HBE cells, ΔF508 homozygous donor, 48 hours incubation
T2 construct: Primary human bronchial epithelial cells from a ΔF508 homozygous CF donor; host or cells: primary human bronchial epithelial cells (CF-HBE), ΔF508 homozygous donor
How it was run: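 Value is ratio of test-agent to DMSO AUC of equivalent transepithelial Cl− current, integrated from forskolin (10 μM) stimulation to CFTR inhibitor-172 (20 μM) block, with benzamil 10 μM present. CF-HBE (ΔF508/ΔF508) cultures had 48 h compound exposure at 10 μM, 36.5° C before recording.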

T2 sequence (P13569 with tags, fused parts or gaps DEL508-508): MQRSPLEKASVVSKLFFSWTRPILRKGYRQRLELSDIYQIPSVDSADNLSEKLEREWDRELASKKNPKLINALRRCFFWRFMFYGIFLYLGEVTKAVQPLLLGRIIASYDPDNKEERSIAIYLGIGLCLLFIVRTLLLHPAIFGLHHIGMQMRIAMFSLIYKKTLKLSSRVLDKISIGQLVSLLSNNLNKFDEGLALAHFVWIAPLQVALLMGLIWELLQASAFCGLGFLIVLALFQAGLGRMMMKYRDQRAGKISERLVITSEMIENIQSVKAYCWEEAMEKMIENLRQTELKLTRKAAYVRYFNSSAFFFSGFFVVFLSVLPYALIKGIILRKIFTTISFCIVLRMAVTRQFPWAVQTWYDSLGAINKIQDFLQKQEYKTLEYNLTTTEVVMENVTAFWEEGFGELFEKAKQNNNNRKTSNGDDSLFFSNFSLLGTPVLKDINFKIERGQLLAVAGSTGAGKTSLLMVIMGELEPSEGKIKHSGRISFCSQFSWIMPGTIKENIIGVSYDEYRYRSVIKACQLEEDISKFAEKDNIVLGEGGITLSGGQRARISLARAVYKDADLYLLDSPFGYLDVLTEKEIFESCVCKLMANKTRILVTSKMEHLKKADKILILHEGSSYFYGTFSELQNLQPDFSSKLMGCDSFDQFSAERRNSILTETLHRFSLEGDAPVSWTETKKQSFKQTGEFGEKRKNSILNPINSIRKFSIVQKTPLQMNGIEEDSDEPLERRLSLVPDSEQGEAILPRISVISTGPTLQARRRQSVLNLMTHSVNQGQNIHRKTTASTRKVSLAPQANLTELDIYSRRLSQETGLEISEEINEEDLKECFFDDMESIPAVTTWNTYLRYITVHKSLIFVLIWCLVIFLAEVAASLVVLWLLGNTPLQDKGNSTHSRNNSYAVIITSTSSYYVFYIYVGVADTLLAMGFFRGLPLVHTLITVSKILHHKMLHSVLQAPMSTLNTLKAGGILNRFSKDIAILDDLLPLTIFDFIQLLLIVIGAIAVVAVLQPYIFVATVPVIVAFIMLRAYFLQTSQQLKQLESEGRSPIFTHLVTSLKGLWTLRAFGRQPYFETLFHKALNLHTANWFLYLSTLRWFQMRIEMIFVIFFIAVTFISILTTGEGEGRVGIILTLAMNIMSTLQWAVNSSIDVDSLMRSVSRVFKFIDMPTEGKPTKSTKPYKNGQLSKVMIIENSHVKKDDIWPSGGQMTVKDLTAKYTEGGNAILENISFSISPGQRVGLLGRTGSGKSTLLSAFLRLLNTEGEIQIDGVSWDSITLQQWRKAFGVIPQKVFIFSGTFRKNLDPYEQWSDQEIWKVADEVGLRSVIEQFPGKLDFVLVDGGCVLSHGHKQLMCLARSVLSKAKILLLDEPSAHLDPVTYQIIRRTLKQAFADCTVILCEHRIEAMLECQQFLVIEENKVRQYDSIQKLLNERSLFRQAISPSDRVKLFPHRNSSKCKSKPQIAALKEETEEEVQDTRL
T1 sequence (P13569 423-646 limits assumed): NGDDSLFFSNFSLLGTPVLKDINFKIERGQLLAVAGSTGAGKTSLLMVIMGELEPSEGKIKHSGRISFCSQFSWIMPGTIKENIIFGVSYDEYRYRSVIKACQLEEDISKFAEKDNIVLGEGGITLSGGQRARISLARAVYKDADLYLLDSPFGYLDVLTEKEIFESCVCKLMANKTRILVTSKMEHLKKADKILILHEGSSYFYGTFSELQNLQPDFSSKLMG

SMILES | DSLS 3D (100 μM ΔT) (NBD1) | TECC (AUC, 10 μM) (CFTR)
C[C@H](Cc1cccc([C@@]2(C)CCCC(C)(C)CS(=O)(=O)CCc3c(c(F)cc4[nH]ccc34)[S+]([O-])c3ccnc(c3)-c3nc2nn3C)c1)C(=O)O (stereo partly drawn) [Compound 231, (2R)-3-[3-[(6R)-22-Fluoro-3,6,10,10-tetramethyl-12,12,24-trioxo-12λ6,24λ4-dithia-3,4,19,28,30-pentazapentacyclo[23.3.1.12,5.015,23.016,20]triaconta-1(29),2(30),4,15,17,20,22,25,27-nonaen-6-yl]phenyl]-2-methyl-propanoic Acid] | C (a value greater than 10 °C and less than or equal to 25 °C is marked “C”) | C (a value between 20 and 80 is marked “C”)
Cn1nc2nc1-c1cc(ccc1F)Oc1c(F)cc3[nH]ccc3c1CCS(=O)(=O)CC(C)(C)CCCC2(C)c1cccc(CC2NC(=O)NC2=O)c1 (centres unmarked) [Compound 175, 5-[[3-(22,28-Difluoro-3,6,10,10-tetramethyl-12,12-dioxo-24-oxa-12λ6-thia-3,4,19,30-tetrazapentacyclo[23.3.1.12,5.015,23.016,20]triaconta-1(29),2(30),4,15,17,20,22,25,27-nonaen-6-yl)phenyl]methyl]imidazolidine-2,4-dione] | C (a value greater than 10 °C and less than or equal to 25 °C is marked “C”) | A (a TECC value less than 12 is marked “A”)
CCn1nc2nc1-c1cc(ccc1F)Oc1c(F)cc3[nH]ccc3c1CCS(=O)(=O)CC(C)(C)CCCC2c1cccc(CCC(=O)O)c1 (centres unmarked) [Compound 62, 3-[3-(3-Ethyl-22,28-difluoro-10,10-dimethyl-12,12-dioxo-24-oxa-12λ6-thia-3,4,19,30-tetrazapentacyclo[23.3.1.12,5.015,23.016,20]triaconta-1(29),2(30),4,15,17,20,22,25,27-nonaen-6-yl)phenyl]propanoic Acid] | C (a value greater than 10 °C and less than or equal to 25 °C is marked “C”) | C (a value between 20 and 80 is marked “C”)
Cn1nc2nc1-c1cc(ccn1)[S+]([O-])c1c(F)cc3[nH]ccc3c1CCS(=O)(=O)CC(C)(C)CCC[C@]2(C)c1cccc(CCS(C)(=O)=O)c1 (single isomer, unassigned) [Compound 243B] | C (a value greater than 10 °C and less than or equal to 25 °C is marked “C”) | C (a value between 20 and 80 is marked “C”)
[2H]C([2H])([2H])C1(c2cccc(CC3(C(=O)O)CC3)c2)CCCC(C)(C)CS(=O)(=O)CCc2c(c(F)cc3[nH]ccc23)Oc2ccc(F)c(c2)-c2nc1nn2C (single isomer, unassigned) [Compound 120A, 1-[[3-[22,28-difluoro-3,10,10-trimethyl-12,12-dioxo-6-(trideuteriomethyl)-24-oxa-12λ6-thia-3,4,19,30-tetrazapentacyclo[23.3.1.12,5.015,23.016,20]triaconta-1(29),2(30),4,15,17,20,22,25,27-nonaen-6-yl]phenyl]methyl]cyclopropanecarboxylic Acid] | C (a value greater than 10 °C and less than or equal to 25 °C is marked “C”) | A (a TECC value less than 12 is marked “A”)
Cc1c2nnn1Cc1c(c(F)cc3[nH]ccc13)Oc1ccc(F)c(c1)-c1nc(nn1C)C(C)(c1cccc(CCC(=O)O)c1)CCS(=O)(=O)C2 (single isomer, unassigned) [Compound 101B, 3-[3-(23,29-difluoro-3,6,31-trimethyl-9,9-dioxo-25-oxa-9lambda6-thia-3,4,12,13,14,20,32-heptazahexacyclo[24.3.1.12,5.111,14.016,24.017,21]-dotriaconta-1(30),2(32),4,11(31),12,16,18,21,23,26,28-undecaen-6-yl)phenyl]propanoic Acid] | B (a value above 5 °C and less than or equal to 10 °C is marked “B”) | A (a TECC value less than 12 is marked “A”)
Cn1nc2nc1-c1cc(ccc1F)Oc1c(F)cc3[nH]ccc3c1CCS(=O)(=O)CC(C)(C)CCCC2(C)c1cccc(CC2CC(=O)NC2=O)c1 (single isomer, unassigned) [Compound 196B, 3-[[3-(22,28-difluoro-3,6,10,10-tetramethyl-12,12-dioxo-24-oxa-12λ6-thia-3,4,19,30-tetrazapentacyclo[23.3.1.12,5.015,23.016,20]triaconta-1(29),2(30),4,15,17,20,22,25,27-nonaen-6-yl)phenyl]methyl]pyrrolidine-2,5-dione] | A (an ΔTagg value less than or equal to 5 °C is marked “A”) | A (a TECC value less than 12 is marked “A”)
[2H]C([2H])([2H])C1(c2cccc(CCC(=O)O)c2)CCCC(C)(C)CS(=O)(=O)CCc2c(c(F)cc3[nH]ccc23)Oc2ccc(F)c(c2)-c2nc1nn2C (single isomer, unassigned) [Compound 96A, 3-[3-[22,28-difluoro-3,10,10-trimethyl-12,12-dioxo-6-(trideuteriomethyl)-24-oxa-12lambda6-thia-3,4,19,30-tetrazapentacyclo-[23.3.1.12,5.015,23.016,20]triaconta-1(29),2(30),4,15,17,20,22,25,27-nonaen-6-yl]phenyl]propanoic Acid] | C (a value greater than 10 °C and less than or equal to 25 °C is marked “C”) | A (a TECC value less than 12 is marked “A”)
C[C@H](Cc1cccc([C@@]2(C)CCCC(C)(C)CS(=O)(=O)CCc3c(c(F)c(F)c4[nH]ccc34)Oc3ccc(F)c(c3)-c3nc2nn3C)c1)C(=O)O [Compound 200, (2R)-2-methyl-3-[3-[(6R)-21,22,28-trifluoro-3,6,10,10-tetramethyl-12,12-dioxo-24-oxa-12λ6-thia-3,4,19,30-tetrazapentacyclo[23.3.1.12,5.015,23.016,20]triaconta-1(29),2(30),4,15,17,20,22,25,27-nonaen-6-yl]phenyl]propanoic acid] | C (a value greater than 10 °C and less than or equal to 25 °C is marked “C”) | C (a value between 20 and 80 is marked “C”)
CC(Cc1cccc(C2(CF)CCCC(C)(C)CS(=O)(=O)CCc3c(c(F)cc4[nH]ccc34)Oc3ccc(F)c(c3)-c3nc2nn3C)c1)C(=O)O (single isomer, unassigned) [Compound 108B, 3-[3-[22,28-difluoro-6-(fluoromethyl)-3,10,10-trimethyl-12,12-dioxo-24-oxa-12λ6-thia-3,4,19,30-tetrazapentacyclo[23.3.1.12,5.015,23.016,20]triaconta-1(29),2(30),4,15,17,20,22,25,27-nonaen-6-yl]phenyl]-2-methyl-propanoic acid] | A (an ΔTagg value less than or equal to 5 °C is marked “A”) | C (a value between 20 and 80 is marked “C”)
